Laboratory results published in patent US20250325534A1, “MICROBIOCIDAL TETRAHYDROISOQUINOLINE DERIVATIVES” (SYNGENTA CROP PROTECTION AG, priority 2021, published 2025).

How the values were obtained:
Type in all cases: cell-based
[1] = tested on: Mycosphaerella graminicola; experiment: Mycosphaerella graminicola (Septoria tritici) / liquid culture (Septoria blotch); details: Zymoseptoria tritici, 96 h, photometrically 4-5 days after application, read-out: control of Mycosphaerella graminicola
Protocol: (§1) Example B19: Mycosphaerella graminicola (Septoria tritici)/Liquid Culture (Septoria Blotch) Conidia of the fungus from cryogenic storage are directly mixed into a nutrient broth (potato dextrose broth). After placing a DMSO solution of test compound into a microtiter plate (96-well format), the nutrient broth containing the fungal spores is added. The test plates are incubated at 24° C. and the inhibition of growth is determined photometrically 4-5 days after application.

Glomerella lagenarium = Glomerella lagenarium (Colletotrichum lagenarium) / liquid culture (anthracnose); details: Colletotrichum orbiculare, 72 h, photometrically 3-4 days after application, read-out: control of Glomerella lagenarium
Protocol: as §1, with “B5: Glomerella Lagenarium (Colletotrichum Lagenarium)/Liquid” for “B19: Mycosphaerella graminicola (Septoria tritici)/Liquid”, “(Anthracnose)” for “(Septoria Blotch)”, “measured” for “determined”, “3-4” for “4-5”

Mycosphaerella arachidis = Mycosphaerella arachidis (Cercospora arachidicola) / liquid culture (early leaf spot); details: 96 h, photometrically 4-5 days after application, read-out: control of Mycosphaerella arachidis
Protocol: as §1, with “B11:” for “B19:”, “arachidis (Cercospora arachidicola)/Liquid” for “graminicola (Septoria tritici)/Liquid”, “(Early Leaf Spot)” for “(Septoria Blotch)”

Monographella nivalis = Monographella nivalis (Microdochium nivale) / liquid culture (foot rot cereals); details: 96 h, photometrically 4-5 days after application, read-out: control of Monographella nivalis
Protocol: as §1, with “B10: Monographella nivalis (Microdochium nivale)/Liquid” for “B19: Mycosphaerella graminicola (Septoria tritici)/Liquid”, “(Foot Rot Cereals)” for “(Septoria Blotch)”

Q: For Cc1cccc(-c2cc(C(=O)N3Cc4ccccc4C(c4cnn(C)c4)C3)no2)c1 (stereo not shown) [Compound P-187, [4-(1-methylpyrazol-4-yl)-3,4-dihydro-1H-isoquinolin-2-yl]-[5-(m-tolyl)isoxazol-3-yl]methanone], which inhibition of growth at 20 ppm [1] is on record?
A: ≥ 80%

Q: And the inhibition of growth at 20 ppm (Glomerella lagenarium)?
A: ≥ 80%

Q: Which inhibition of growth at 20 ppm [1] does the source give for CCC1(c2cnn(C)c2)CN(C(=O)c2cc(-c3ccc(F)cc3F)on2)C(C)c2ccccc21 (stereo not shown) [Compound P-222, [5-(2,4-difluorophenyl)isoxazol-3-yl]-[4-ethyl-1-methyl-4-(1-methylpyrazol-4-yl)-1,3-dihydroisoquinolin-2-yl]methanone] here?
A: ≥ 80%

Q: What about the inhibition of growth at 20 ppm (Mycosphaerella arachidis) of the same compound?
A: ≥ 80%

Q: And the inhibition of growth at 20 ppm (Monographella nivalis)?
A: ≥ 80%

Q: For COc1ccc2c(c1)C(C)(c1cnn(C)c1)CN(C(=O)c1cc(-c3ccccc3)on1)C2C (stereo not shown) [Compound P-39, [6-methoxy-1,4-dimethyl-4-(1-methylpyrazol-4-yl)-1,3-dihydroisoquinolin-2-yl]-(5-phenylisoxazol-3-yl)methanone], which inhibition of growth at 20 ppm [1] is on record?
A: ≥ 80%

Q: And the inhibition of growth at 20 ppm (Mycosphaerella arachidis)?
A: ≥ 80%

Q: What about the inhibition of growth at 20 ppm (Monographella nivalis) of the same compound?
A: ≥ 80%

Q: Cc1cccc2c1CN(C(=O)c1cc(-c3ccc(F)cc3F)on1)CC2c1c(C)nn(C)c1C (stereo not shown) [Compound P-114, [5-(2,4-difluorophenyl)isoxazol-3-yl]-[8-methyl-4-(1,3,5-trimethylpyrazol-4-yl)-3,4-dihydro-1H-isoquinolin-2-yl]methanone] was tested. Which inhibition of growth at 20 ppm [1] did it give?
A: ≥ 80%

Q: And the inhibition of growth at 20 ppm (Mycosphaerella arachidis)?
A: ≥ 80%

Q: With Cn1cc(C2CN(C(=O)c3cc(-c4ccc(F)cc4F)on3)Cc3cc(C(F)(F)F)ccc32)cn1 (stereo not shown) [Compound P-111, [5-(2,4-difluorophenyl)isoxazol-3-yl]-[4-(1-methylpyrazol-4-yl)-7-(trifluoromethyl)-3,4-dihydro-1H-isoquinolin-2-yl]methanone] as the compound, how does the inhibition of growth at 20 ppm [1] read?
A: ≥ 80%

Q: What about the inhibition of growth at 20 ppm (Glomerella lagenarium) of the same compound?
A: ≥ 80%

Q: What about the inhibition of growth at 20 ppm (Monographella nivalis) of the same compound?
A: ≥ 80%

Q: With Cn1cc(C2CN(C(=O)c3cc(-c4cc(F)ccc4F)on3)Cc3ccccc32)cn1 (stereo not shown) [Compound P-149, [5-(2,5-difluorophenyl)isoxazol-3-yl]-[4-(1-methylpyrazol-4-yl)-3,4-dihydro-1H-isoquinolin-2-yl]methanone] as the compound, how does the inhibition of growth at 20 ppm [1] read?
A: ≥ 80%

Q: What about the inhibition of growth at 20 ppm (Glomerella lagenarium) of the same compound?
A: ≥ 80%

Q: What about the inhibition of growth at 20 ppm (Monographella nivalis) of the same compound?
A: ≥ 80%

Q: Cc1nn(C)c(C)c1C1CN(C(=O)c2cc(-c3ccc(Cl)cc3F)on2)Cc2ccccc21 (stereo not shown) [Compound P-125, [5-(4-chloro-2-fluoro-phenyl)isoxazol-3-yl]-[4-(1,3,5-trimethylpyrazol-4-yl)-3,4-dihydro-1H-isoquinolin-2-yl]methanone] was tested. Which inhibition of growth at 20 ppm [1] did it give?
A: ≥ 80%

Q: What about the inhibition of growth at 20 ppm (Mycosphaerella arachidis) of the same compound?
A: ≥ 80%

Q: What about the inhibition of growth at 20 ppm (Monographella nivalis) of the same compound?
A: ≥ 80%

Q: With Cn1cc(C2CN(C(=O)c3cc(-c4ccc(F)c(F)c4)on3)Cc3ccccc32)cn1 (stereo not shown) [Compound P-172, [5-(3,4-difluorophenyl)isoxazol-3-yl]-[4-(1-methylpyrazol-4-yl)-3,4-dihydro-1H-isoquinolin-2-yl]methanone] as the compound, how does the inhibition of growth at 20 ppm [1] read?
A: ≥ 80%

Q: What about the inhibition of growth at 20 ppm (Mycosphaerella arachidis) of the same compound?
A: ≥ 80%

Q: CC1c2ccc(OCC(F)F)cc2C(C)(c2cnn(C)c2)CN1C(=O)c1cc(-c2ccccc2)on1 (stereo not shown) [Compound P-26, [6-(2,2-difluoroethoxy)-1,4-dimethyl-4-(1-methylpyrazol-4-yl)-1,3-dihydroisoquinolin-2-yl]-(5-phenylisoxazol-3-yl)methanone] was tested. Which inhibition of growth at 20 ppm [1] did it give?
A: ≥ 80%

Q: What about the inhibition of growth at 20 ppm (Mycosphaerella arachidis) of the same compound?
A: ≥ 80%

Q: With CC(C)[C@]1(c2cnn(C)c2)CN(C(=O)c2cc(-c3ccc(F)cc3F)on2)[C@@H](C)c2ccccc21 [Compound P-241, [5-(2,4-difluorophenyl)isoxazol-3-yl]-[(1S,4S)-4-isopropyl-1-methyl-4-(1-methylpyrazol-4-yl)-1,3-dihydroisoquinolin-2-yl]methanone] as the compound, how does the inhibition of growth at 20 ppm [1] read?
A: ≥ 80%

Q: And the inhibition of growth at 20 ppm (Mycosphaerella arachidis)?
A: ≥ 80%

Q: Cn1cc(C2CN(C(=O)c3ccc(-c4ccc(C(F)(F)F)cc4)o3)Cc3ccccc32)cn1 (stereo not shown) [Compound P-76, [4-(1-methylpyrazol-4-yl)-3,4-dihydro-1H-isoquinolin-2-yl]-[5-[4-(trifluoromethyl)phenyl]-2-furyl]methanone] was tested. Which inhibition of growth at 20 ppm (Glomerella lagenarium) did it give?
A: ≥ 80%

Q: With Cn1cc(C2CN(C(=O)c3ccc(-c4ccc(F)cc4)o3)Cc3ccccc32)cn1 (stereo not shown) [Compound P-97, [5-(4-fluorophenyl)-2-furyl]-[4-(1-methylpyrazol-4-yl)-3,4-dihydro-1H-isoquinolin-2-yl]methanone] as the compound, how does the inhibition of growth at 20 ppm (Glomerella lagenarium) read?
A: ≥ 80%

Q: With Cc1ccc2c(c1)C(c1cnn(C)c1)CN(C(=O)c1cc(-c3ccccc3)on1)C2 (stereo not shown) [Compound P-137, [6-methyl-4-(1-methylpyrazol-4-yl)-3,4-dihydro-1H-isoquinolin-2-yl]-(5-phenylisoxazol-3-yl)methanone] as the compound, how does the inhibition of growth at 20 ppm [1] read?
A: ≥ 80%

Q: And the inhibition of growth at 20 ppm (Mycosphaerella arachidis)?
A: ≥ 80%

Q: What does the source list for CC1c2ccc(OCC(F)F)cc2C(C)(c2cnn(C)c2)CN1C(=O)c1cc(-c2ccc(F)cc2F)on1 (stereo not shown) [Compound P-33, [6-(2,2-difluoroethoxy)-1,4-dimethyl-4-(1-methylpyrazol-4-yl)-1,3-dihydroisoquinolin-2-yl]-[5-(2,4-difluorophenyl)isoxazol-3-yl]methanone]?
A: inhibition of growth at 20 ppm [1]: ≥ 80%; inhibition of growth at 20 ppm (Mycosphaerella arachidis): ≥ 80%; inhibition of growth at 20 ppm (Monographella nivalis): ≥ 80%

Q: What does the source list for Cn1cc(C2CN(C(=O)c3cc(-c4cccc(Cl)c4)on3)Cc3ccccc32)cn1 (stereo not shown) [Compound P-190, [5-(3-chlorophenyl)-isoxazol-3-yl]-[4-(1-methylpyrazol-4-yl)-3,4-dihydro-1H-isoquinolin-2-yl]methanone]?
A: inhibition of growth at 20 ppm [1]: ≥ 80%; inhibition of growth at 20 ppm (Glomerella lagenarium): ≥ 80%; inhibition of growth at 20 ppm (Monographella nivalis): ≥ 80%

Q: CC(C)[C@@]1(c2cnn(C)c2)CN(C(=O)c2cc(-c3ccc(F)cc3F)on2)[C@@H](C)c2ccccc21 [Compound P-239, [5-(2,4-difluorophenyl)isoxazol-3-yl]-[(1S,4R)-4-isopropyl-1-methyl-4-(1-methylpyrazol-4-yl)-1,3-dihydroisoquinolin-2-yl]methanone] was tested. Which inhibition of growth at 20 ppm [1] did it give?
A: ≥ 80%

Q: And the inhibition of growth at 20 ppm (Mycosphaerella arachidis)?
A: ≥ 80%

Q: Which results are given for Cc1c(C2CN(C(=O)c3cc(C4CCCCC4)on3)Cc3ccccc32)cnn1C (stereo not shown) [Compound P-236, (5-cyclohexylisoxazol-3-yl)-[4-(1,5-dimethylpyrazol-4-yl)-3,4-dihydro-1H-isoquinolin-2-yl]methanone]?
A: inhibition of growth at 20 ppm [1]: ≥ 80%; inhibition of growth at 20 ppm (Mycosphaerella arachidis): ≥ 80%; inhibition of growth at 20 ppm (Monographella nivalis): ≥ 80%

Q: With CC1c2ccccc2C(c2cnn(C)c2)(C(C)C)CN1C(=O)c1cc(-c2ccc(F)cc2F)on1 (stereo not shown) [Compound P-220, [5-(2,4-difluorophenyl)isoxazol-3-yl]-[4-isopropyl-1-methyl-4-(1-methylpyrazol-4-yl)-1,3-dihydroisoquinolin-2-yl]methanone] as the compound, how does the inhibition of growth at 20 ppm [1] read?
A: ≥ 80%

Q: And the inhibition of growth at 20 ppm (Mycosphaerella arachidis)?
A: ≥ 80%

Q: What does the source list for Cn1cc(C2CN(C(=O)c3cc(-c4cccn4C)on3)Cc3ccccc32)cn1 (stereo not shown) [Compound P-179, [4-(1-methylpyrazol-4-yl)-3,4-dihydro-1H-isoquinolin-2-yl]-[5-(1-methylpyrrol-2-yl)isoxazol-3-yl]methanone]?
A: inhibition of growth at 20 ppm [1]: ≥ 80%; inhibition of growth at 20 ppm (Mycosphaerella arachidis): ≥ 80%; inhibition of growth at 20 ppm (Monographella nivalis): ≥ 80%

Q: Which inhibition of growth at 20 ppm [1] does the source give for Cc1ccccc1-c1cc(C(=O)N2Cc3ccccc3C(c3cnn(C)c3)C2)no1 (stereo not shown) [Compound P-169, [4-(1-methylpyrazol-4-yl)-3,4-dihydro-1H-isoquinolin-2-yl]-[5-(o-tolyl)isoxazol-3-yl]methanone] here?
A: ≥ 80%

Q: What about the inhibition of growth at 20 ppm (Glomerella lagenarium) of the same compound?
A: ≥ 80%

Q: What about the inhibition of growth at 20 ppm (Monographella nivalis) of the same compound?
A: ≥ 80%

Q: What does the source list for Cn1cc(C2CN(C(=O)c3cc(C4CCCC4)on3)Cc3ccccc32)cn1 (stereo not shown) [Compound P-176, (5-cyclopentylisoxazol-3-yl)-[4-(1-methylpyrazol-4-yl)-3,4-dihydro-1H-isoquinolin-2-yl]methanone]?
A: inhibition of growth at 20 ppm [1]: ≥ 80%; inhibition of growth at 20 ppm (Mycosphaerella arachidis): ≥ 80%

Q: For CC1c2ccc(OC(F)F)cc2C(C)(c2cnn(C)c2)CN1C(=O)c1cc(-c2ccc(F)cc2F)on1 (stereo not shown) [Compound P-30, [6-(difluoromethoxy)-1,4-dimethyl-4-(1-methylpyrazol-4-yl)-1,3-dihydroisoquinolin-2-yl]-[5-(2,4-difluorophenyl)isoxazol-3-yl]methanone], which inhibition of growth at 20 ppm [1] is on record?
A: ≥ 80%

Q: What about the inhibition of growth at 20 ppm (Mycosphaerella arachidis) of the same compound?
A: ≥ 80%

Q: And the inhibition of growth at 20 ppm (Monographella nivalis)?
A: ≥ 80%

Q: Which inhibition of growth at 20 ppm [1] does the source give for Cc1cc(-c2cc(C(=O)N3Cc4ccccc4C(c4cnn(C)c4C)C3)no2)n(C)n1 (stereo not shown) [Compound P-226] here?
A: ≥ 80%

Q: And the inhibition of growth at 20 ppm (Glomerella lagenarium)?
A: ≥ 80%

Q: Cn1cc(C2CN(C(=O)c3cc(-c4ccc(F)cc4F)on3)Cc3ccc(Cl)cc32)cn1 (stereo not shown) [Compound P-58, [6-chloro-4-(1-methylpyrazol-4-yl)-3,4-dihydro-1H-isoquinolin-2-yl]-[5-(2,4-difluorophenyl)isoxazol-3-yl]methanone] was tested. Which inhibition of growth at 20 ppm [1] did it give?
A: ≥ 80%

Q: What about the inhibition of growth at 20 ppm (Glomerella lagenarium) of the same compound?
A: ≥ 80%

Q: And the inhibition of growth at 20 ppm (Monographella nivalis)?
A: ≥ 80%
